Experimental findings from ChEMBL document CHEMBL1201862, “PubChem BioAssay data set” (2004) are described below.

Some test systems named below: NCI-H226; NCI/ADR-RES; MOLT-4; LOX IMVI; HCT-15; HT-29; TK-10; Malme-3M; K562; SN12C; OVCAR-3; MDA-N; RPMI-8226; U-251; CCRF-CEM; SNB-19; OVCAR-8; IGROV-1; SR; HCC 2998.
What all share (test): NCI tumour cell line growth inhibition, 48 h

Each structure is given as a SMILES string.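 How tested: cells in 96-well plates exposed to compound for 48 hours at five concentrations. GI50: concentration for 50% inhibition of growth.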 Active and inactive are the calls of the source. Cut-off read from the data, not from the text of the source: active = GI50 up to about 1.1 µM and inactive = higher.

`CC(C)(C)c1cc(C(C)(C)C)c(SS(=O)(=O)O)c(O)c1O`: the GI50 in the assay on NCI-H226 was 40 µM (inactive); in the assay on NCI/ADR-RES, 58.1 µM (inactive); in the assay with MOLT-4 it was < 0.01 µM (active); in the assay on LOX IMVI, 35.4 µM (inactive); with HCT-15, 48.3 µM; with HT-29, 41.1 µM (inactive). Further, the GI50 in the assay on TK-10 was > 100 µM (inactive); in the assay with Malme-3M, 97.5 µM (inactive); in the assay with K562 it was 0.246 µM (active); in the assay on SN12C it was 67 µM (inactive); with OVCAR-3, 34.1 µM (inactive); in the assay with MDA-N it was 30.1 µM (inactive). Also, the GI50 in the assay with RPMI-8226 is 21.6 µM (inactive); in the assay with U-251 it was 27.2 µM (inactive); with CCRF-CEM, 49 µM (inactive); with SNB-19, 46.8 µM (inactive); in the assay on OVCAR-8 it was 44.9 µM (inactive); with IGROV-1 it was 55.7 µM (inactive).

Turning to `CC(=O)Nc1ccc(C(=O)NN2C(=O)C(Cl)C2c2ccc(Cl)cc2)cc1` (centres undefined), the GI50 was > 57.4 µM (inactive) in the assay with NCI-H226; > 100 µM (inactive) with NCI/ADR-RES; > 100 µM (inactive) in the assay on SR; > 100 µM (inactive) in the assay with MOLT-4; over 100 µM with HCT-15; > 100 µM (inactive) in the assay with HT-29. For the same compound, the GI50 with TK-10 is > 100 µM (inactive); in the assay on HCC 2998 it was > 100 µM (inactive); in the assay with Malme-3M it was > 42.9 µM (inactive); in the assay on K562, > 100 µM (inactive); in the assay with SN12C, 39.6 µM (inactive); in the assay with OVCAR-3 it was 18.8 µM (inactive). The GI50 with RPMI-8226 was > 100 µM (inactive); with U-251 it was 23.9 µM (inactive); in the assay with CCRF-CEM, > 100 µM (inactive); in the assay with SNB-19, 24.2 µM (inactive); with OVCAR-8, 37 µM (inactive); with IGROV-1 it was 37.3 µM (inactive).

Turning to `COc1ccc(OC)c2c1C=C[C@H](C1(C)SCCS1)C2C(C)=O` (some centres undefined), the GI50 in the assay on NCI-H226 was 24 µM (inactive); with NCI/ADR-RES, 32.2 µM (inactive); in the assay on SR it was 19.6 µM (inactive); in the assay on MOLT-4 it was 19.7 µM (inactive); in the assay with LOX IMVI, 9.84 µM (inactive); with HCT-15, 33.1 µM. The GI50 was 18.7 µM (inactive) in the assay on HT-29; 40.2 µM (inactive) in the assay with TK-10; 50.1 µM (inactive) in the assay with HCC 2998; 20.7 µM (inactive) in the assay with Malme-3M; 32.7 µM (inactive) in the assay on K562; 35.3 µM (inactive) with SN12C. Moreover, the GI50 in the assay with OVCAR-3 is 29.3 µM (inactive); in the assay with RPMI-8226, 18.6 µM (inactive); in the assay with U-251, 26.1 µM (inactive); in the assay on CCRF-CEM, 27.7 µM (inactive); in the assay with SNB-19, 27.4 µM (inactive); in the assay with OVCAR-8 it was 44.2 µM (inactive). In addition, the GI50 in the assay on IGROV-1 is 42.4 µM (inactive).

In the case of `COc1ccc(C2=C3SC=c4ccccc4=C3ON=C2c2ccccc2)cc1`, the GI50 in the assay with NCI-H226 is > 100 µM (inactive); with NCI/ADR-RES, > 100 µM (inactive); in the assay with SR it was 42 µM (inactive); in the assay with MOLT-4 it was 37.2 µM (inactive); in the assay with LOX IMVI, > 100 µM (inactive); in the assay with HCT-15, over 100 µM. In addition, the GI50 in the assay with HT-29 is > 100 µM (inactive); in the assay with TK-10, > 100 µM (inactive); in the assay with HCC 2998, > 100 µM (inactive); with Malme-3M it was > 100 µM (inactive); in the assay on K562, 22.9 µM (inactive); in the assay on SN12C, > 100 µM (inactive). For the same compound, the GI50 is 94.8 µM (inactive) with OVCAR-3; 69.2 µM (inactive) with RPMI-8226; > 100 µM (inactive) in the assay on U-251; 84.3 µM (inactive) in the assay on CCRF-CEM; > 100 µM (inactive) in the assay with SNB-19; > 100 µM (inactive) in the assay with OVCAR-8. The GI50 with IGROV-1 was > 100 µM (inactive).

With `C[N+](C)(C)CC(=O)N/N=C(\Cc1nc2ccc([N+](=O)[O-])cc2nc1O)C(=O)Nc1nc2ccc([N+](=O)[O-])cc2s1`, the GI50 in the assay on NCI-H226 was 25.4 µM (inactive); in the assay with NCI/ADR-RES, 63.4 µM (inactive); in the assay on SR it was 44.1 µM (inactive); with MOLT-4, 49.2 µM (inactive); with LOX IMVI, 35.6 µM (inactive); in the assay with HCT-15 it was 28 µM. The GI50 with HT-29 is 45.6 µM (inactive); with TK-10, 67.6 µM (inactive); in the assay with HCC 2998, 36.9 µM (inactive); in the assay on K562 it was 86.3 µM (inactive); with SN12C it was 89.1 µM (inactive); in the assay on OVCAR-3, 31.8 µM (inactive). For the same compound, the GI50 was 34.5 µM (inactive) in the assay with RPMI-8226; 56.6 µM (inactive) in the assay on U-251; 40.9 µM (inactive) with CCRF-CEM; 74.3 µM (inactive) in the assay on OVCAR-8; 23.5 µM (inactive) in the assay on IGROV-1.

With `NS(=O)(=O)c1cccc(NC(=S)NC(=O)Nc2ccc(Cl)c(Cl)c2)c1`, the GI50 in the assay on NCI/ADR-RES was 15.9 µM (inactive); in the assay with MOLT-4, 12 µM (inactive); with LOX IMVI, 16.7 µM (inactive); in the assay on HCT-15, 17.3 µM; in the assay on HT-29, 25.9 µM (inactive); in the assay on TK-10 it was 32.5 µM (inactive). Moreover, the GI50 in the assay with Malme-3M was 11.5 µM (inactive); in the assay with K562, 16.2 µM (inactive); with SN12C, 17.7 µM (inactive); in the assay with MDA-N it was 18.6 µM (inactive); with RPMI-8226, 16.9 µM (inactive); in the assay on U-251, 22.3 µM (inactive). The GI50 in the assay with CCRF-CEM is 30.2 µM (inactive); in the assay on SNB-19, 21.2 µM (inactive); in the assay with OVCAR-8, 17.3 µM (inactive); with IGROV-1, 20 µM (inactive).

In the case of `CC/C(=C/OC)P1(=O)OC(C)(C)CN1C(C)(C)C` (centres undefined), the GI50 in the assay with NCI-H226 is > 100 µM (inactive); in the assay with NCI/ADR-RES, > 100 µM (inactive); in the assay with SR it was > 100 µM (inactive); in the assay on LOX IMVI, > 100 µM (inactive); with HCT-15 it was over 100 µM; with HT-29 it was > 100 µM (inactive). Moreover, the GI50 with TK-10, with HCC 2998, in the assay with Malme-3M, in the assay on K562, in the assay on OVCAR-3 and in the assay with RPMI-8226 was > 100 µM (inactive) throughout. For the same compound, the GI50 with U-251, in the assay with SNB-19, with OVCAR-8 and in the assay with IGROV-1 was > 100 µM (inactive) throughout.

As for `Cc1ccc(Nc2nc(C)c(C(=O)CC(=O)C(=O)Nc3ccc(Cl)cc3)s2)cc1`, the GI50 is > 100 µM (inactive) in the assay on SR; > 100 µM (inactive) in the assay on MOLT-4; > 100 µM (inactive) with LOX IMVI; over 100 µM with HCT-15; > 100 µM (inactive) with TK-10; > 100 µM (inactive) in the assay on HCC 2998. Also, the GI50 in the assay on Malme-3M was 76.6 µM (inactive); with K562, > 100 µM (inactive); in the assay on SN12C, > 100 µM (inactive); with OVCAR-3, > 100 µM (inactive); in the assay on MDA-N, > 100 µM (inactive); in the assay with RPMI-8226, > 100 µM (inactive). Besides, the GI50 in the assay on U-251, with CCRF-CEM, with SNB-19 and in the assay with IGROV-1 was > 100 µM (inactive) in each case.
